Columns and labels:
[1] = system: sciatic nerve block in rat; test: Paw withdrawal latency (PWL) to a heat stimulus after perineural sciatic nerve block, dexmedetomidine dose response (Example 2); format: in vivo; settings: operative paw, ropivacaine 0.5%, heat cut-off 15 seconds, n = 10
Protocol: Commercially available 0.75% ropivacaine solution was mixed with preservative free normal saline or dexmedetomidine to make final solutions. The control group received 0.5% ropivacaine alone. In the experimental groups, ropivacaine was mixed with dexmedetomidine to make solutions based on the individual rat's weight 24 hours prior to experimental testing. […] The pH of ropivacaine (5.69±0.05) was used as the standard to which all solutions were maintained.
Fifty male Sprague Dawley rats (caesarean-derived Sprague-Dawley) weighing 250-350 g were purchased from Charles River Laboratories (Wilmington, Mass.). Rats without any signs of neurobehavioral impairment were maintained for one week in 12:12 light-dark cycles with lights on from 6 a.m. to 6 p.m. For the three days prior to surgery and neurobehavioral monitoring, rats were conditioned to the paw withdrawal chambers for one hour per day. Each rat was placed in the same position of the six-chamber container during the conditioning and neurobehavioral testing. On each of the three days prior to testing, both paws of the rat were exposed to the heat stimulus as a portion of the conditioning process. The day before surgery and testing, five PWL baseline measurements were obtained on both the operative and control paws. The mean value of the five measures was recorded as the rat's baseline value.
The IITC Life Sciences Inc. Plantar Analgesia Meter (Series 8 Model 336T, IITC Life Science Inc., Woodland Hills, Calif.) was used to test paw withdrawal latency (PWL) (Hargreaves et al. (1988) Pain 32:77-88; herein incorporated by reference in its entirety). The analgesia meter used a test unit containing a heat source that radiated a light beam. An angled mirror on the test unit was used to locate the correct target on the paw. The meter was set with an active intensity of 40%, an idle intensity of 10%, and a cut-off time for the heat source of 15 seconds. The time to paw withdrawal from the heat stimulus comprised the PWL measure (reaction time was measured to 0.01 s). An acrylic six-chamber container was used to separate the rats that were placed on the glass (Model 400) heated base. In order to decrease the level of variance in PWL measurements, the temperature of the base was set to 30 degrees Celsius five minutes prior to and throughout each round of PWL testing (Ding et al. (1997) Neurosci. Methods 76:183-191; herein incorporated by reference in its entirety).
An investigator blinded to the drug condition carried out the sciatic nerve injections. Each rat was randomly assigned to one of the five drug conditions. The laboratory assistants responsible for drug preparation were blinded to the surgery, neurobehavioral monitoring, and PWL measures. Rats were anesthetized and maintained with 2.5% isoflurane. […] Following the dissection, the sciatic nerve was clearly identified at a point proximal its bifurcation. All rats received unilateral injections of 0.2 ml of drug into the perineural space below the clear fascia covering the nerve and proximal to the bifurcation of the sciatic nerve. Injections were made using a tuberculin syringe and a 30-gauge needle. The time of the injection was recorded and deemed the zero time point. A non-absorbable muscle fascia suture was placed at the midpoint of the injection site as a marker for subsequent nerve removal.

[2] = system: sciatic nerve block in rat; test: PWL and inter-paw differential (IPD), perineural versus subcutaneous dexmedetomidine in sciatic nerve block (Example 3); format: in vivo
Protocol: The relative systemic versus peripheral perineural effects of dexmedetomidine were determined by observing the PWL for the blocked and unblocked (control) paw. The effect of sensory analgesia (as measured by the PWL) to the operative paw compared with the control paw was calculated and is reported as the inter-paw differential (IPD=100*[Operative PWL−Control PWL]/Control PWL).
Data are presented as mean±SEM.

[3] = system: sciatic nerve block in rat; settings: high-dose dexmedetomidine alone or combined with approved concentrations of bupivacaine; cited from earlier work
[4] = drug(s) injected perineurally, saline subcutaneously, ropivacaine 0.5%, DEX 20.0 μg/kg, p<0.05

| Structure (SMILES) | Mean PWL values, 90 min ([1]; 90 min after 0.2 ml perineural sciatic injection) | Mean PWL values, 120 min ([1]; 120 min after 0.2 ml perineural sciatic injection) | Mean PWL values, 150 min ([1]; 150 min after 0.2 ml perineural sciatic injection) | Mean PWL values, 180 min ([1]; 180 min after 0.2 ml perineural sciatic injection) | Mean PWL values, 210 min ([1]; 210 min after 0.2 ml perineural sciatic injection) | PWL scores of the operative paws, 30-90 min time points ([2]; dense blockade, cutoff threshold 15 s, ropivacaine 0.5%, DEX 20.0 μg/kg) | time points with significant differences between the operative and control paws (PWL) [2, 4] | sensory blockade of the operative paw ([2]; DEX 20.0 μg/kg alone, perineural) | inter-paw differential (IPD), relative effect ([2]; DEX 20.0 μg/kg alone, perineural, significantly different at 30 and 60 minutes (p=0.006 and 0.002)) | time points with significant differences between the operative and control paws (PWL) ([2]; DEX 20.0 μg/kg injected subcutaneously, perineural 0.5% ropivacaine or saline) | neurotoxicity [3] |
| --- | --- | --- | --- | --- | --- | --- | --- | --- | --- | --- | --- |
| CCCN1CCCC[C@H]1C(=O)Nc1c(C)cccc1C [Ropivacaine, ropivacaine] | 13.25 s | 6.13 s | 4.74 s | 5.35 s | 5.05 s | ~15 s | 30 to 90 min |  |  |  |  |
| Cc1cccc([C@H](C)c2cnc[nH]2)c1C [dexmedetomidine, Dexmedetomidine] |  |  |  |  |  |  | 60 min | brief, partial sensory blockade | greater than subcutaneous dexmedetomidine alone | affected both paws equally | no neurotoxicity |

Reference: patent publication US8410140B2, “Anesthetic methods and compositions” (The Regents of the University of Michigan, priority 2009, dated 2013)
